One data set deals with IL‐4, STAT6‐Luc. Kind of data set: IL-4-induced JAK-STAT6-luciferase assay in U937 monocytes. It counts as cell-based. The settings on record: Homo sapiens, U-937, interleukin at EC80.
In another data set the test system is IL‐13, STAT6‐Luc. Kind of data set: IL-13-induced JAK-STAT6-luciferase assay in U937 monocytes. It counts as cell-based. The settings on record: Homo sapiens, U-937, interleukin at EC80.
Data set [1] is described as follows: Solubility in phosphate buffer. The data set is classed as physicochemical. To be noted: pH 7.4, aqueous buffer. From the text: TABLE 1 In vitro potency and selectivity of JAK inhibitors | column: Solubility (μM) ^c
In data set [2] the test system is Human Peripheral Blood Mononuclear Cells (PBMCs). Kind of data set: Cytokine release from anti-CD3-stimulated human PBMCs. It counts as cell-based. To be noted: during stimulation with anti‐CD3, 40–48 h. Here is the method:
Human Peripheral Blood Mononuclear Cells (PBMCs) were isolated by Sepmate technique (Stemcell Technologies) from heparinized venous blood from healthy volunteers. Primary human CD8^+ T‐cells were further isolated using a CD8^+ T cell Isolation Kit according to protocol (Miltenyi Biotec). Experiments were approved by the local ethical committee in Gothenburg (033‐11).
Soluble anti‐CD28 were added to the CD8^+ cultures to facilitate co‐stimulation. After 40–48 h, supernatants were harvested for mediator analysis and the cells were washed and resuspended in RLT buffer (Qiagen) for RNA isolation.
Analysis of human cytokine panels was carried out using a Luminex assay kit from Merck Millipore (Cat# HCYTMAG‐60K‐PX41) and Mesoscale Discovery (MSD) immunoassay kits (Cat# K211AEB‐2 and K15049D) as recommended in the respective supplier protocols.

The next data set relates to AA mice. Also on record: method as in PMID 25129481. To be noted: 12 weeks of treatment, 3 months follow up; cited from earlier work.
Data set [3] can be described thus: Plasma and skin exposure in treated AA mice. To be noted: 3% cream topically, one hour after application.

Converted amounts (≈) assume the structure as drawn. “And” between values parts separate entries of the source, which are not always exact repeats. Equal entries are not always repeated.

These results are taken from paper PMC10233092, “Selective Janus kinase 1 inhibition resolves inflammation and restores hair growth offering a viable treatment option for alopecia areata” (Skin Health and Disease, 2023).

Take `N#CC[C@H](C1CCCC1)n1cc(-c2ncnc3[nH]ccc23)cn1` [Ruxolitinib, reference compound]: the IC50 with IL‐4, STAT6‐Luc was 110 nM; in the data set with IL‐13, STAT6‐Luc it was 82 nM. This compound also registered a solubility in data set [1] of 678 µM (≈ 208 µg/mL). The “release of IL‐1RA from PBMCs” value in data set [2] is recorded as “dramatically increased”. The remission after treatment entry with AA mice is “induced stable remission”.

`C[C@@H]1CCN(C(=O)CC#N)C[C@@H]1N(C)c1ncnc2[nH]ccc12` [Tofacitinib, reference compound]: in data set [1], the solubility was > 1000 µM. In addition, the “release of IL‐1RA from PBMCs” value in data set [2] is given as “dramatically increased”. In the data set with AA mice, the remission after treatment result is reported as “induced stable remission”. The “unbound plasma exposure over IC50” value in data set [3] is 3–7 fold IC50 and 5 fold IC50.
